Laboratory results published in patent publication US12121521B2, “Uses of salt-inducible kinase (SIK) inhibitors for treating osteoporosis” (The General Hospital Corporation, priority 2016, dated 2024).

Experiments:
Format in all cases: cell-based, mouse
Ocy454 cells [1] = experiment: Immunoblotting of Ocy454 cell lysates (HDAC4/5, CRTC2, SIK2 phosphorylation and localisation)
Ocy454 cells [2] = experiment: as above; conditions: 10 uM, 90 minutes, compared to DMSO control; FIGS. 17 to 19
Method: The Ocy454 osteocyte cell line was treated for 90 minutes with the indicated compound at 10 uM dose (FIG. 17). Phospho-HDAC4 S246 levels were monitored by immunoblotting (top band) compared to DMSO control.
For all experiments, a single cell subclone of Ocy454 cells (17, 18) was used. Cells were passages in alpha-MEM supplemented with 10% heat-inactivated fetal bovine serum and 1% antibiotics (penicillin/streptomycin, Fungizone) at 33° C. with 5% CO2. Cells were plated at 50,000 cells/ml and allowed to reach confluency at 33° C. (typically in 2-3 days). At this point, cells were transferred to 37° C. for subsequent analysis. For immunoblotting, cells were always analyzed after culture at 37° C. for 7 days. For gene expression analysis, cells were analyzed after culture at 37° C. for 14 days. Mycoplasma contamination was ruled out by PCR. Cells were routinely assayed for SOST expression at 37° C. and examined for osteocytic morphology. […]

Ocy454 cells [3] = experiment: Gene expression in Ocy454 cells by RT-qPCR; conditions: FIG. 5E
Ocy454 cells [4] = experiment: Gene expression in Ocy454 cells by RT-qPCR; conditions: 0.5 μM, 3.5 hours; FIG. 21
Method: In FIG. 21, Ocy454 cells (osteocyte cell line, also known at 6-9 cells) were cultured at 37° C. for 2 weeks to permit osteocyte differentiation. The cells were then treated with the indicated compound (0.5 μM) for 3.5 hours, and gene expression was analyzed by RT-qPCR. SOST expression was reduced by the indicated compounds. RANKL expression was increased by the indicated compounds. […] Therefore, these changes in gene expression may be due to on-target effects of the indicated compound.
For all experiments, a single cell subclone of Ocy454 cells (17, 18) was used. Cells were passages in alpha-MEM supplemented with 10% heat-inactivated fetal bovine serum and 1% antibiotics (penicillin/streptomycin, Fungizone) at 33° C. with 5% CO2. Cells were plated at 50,000 cells/ml and allowed to reach confluency at 33° C. (typically in 2-3 days). At this point, cells were transferred to 37° C. for subsequent analysis. For immunoblotting, cells were always analyzed after culture at 37° C. for 7 days. For gene expression analysis, cells were analyzed after culture at 37° C. for 14 days. Mycoplasma contamination was ruled out by PCR. Cells were routinely assayed for SOST expression at 37° C. and examined for osteocytic morphology.
Total RNA was extracted from cultured cells using RNeasy (Qiagen, Venlo, Netherlands) following the manufacturer's instructions. For long bone RNA isolation, mice were sacrificed and both femurs were rapidly dissected on ice. Soft tissue was removed and epiphyses cut. Bone marrow cells were then removed by serial flushing with ice-cold PBS. TRIzol (Life Technologies) was added and sampled were frozen at −80C and then homogenized. RNA was then extracted per the manufacturer's instructions, and further purified on RNeasy microcolumns prior to cDNA synthesis. RNA with A260/280 ratio <1.7 was not used for downstream analysis. For cDNA synthesis, 1 μg RNA was used in synthesis reactions according to the instructions of the manufacturer (Primescript RT, Takara). SYBR Green-based qPCR detection was performed using FastStart Universal SYBR Green (Roche, Basel, Switzerland) on a StepOne Plus (Applied Biosystems, Carlsbad, CA) thermocycler.

Ocy454 cells [5] = experiment: cAMP radioimmunoassay; conditions: 20 minutes; FIG. 14B
Method: Cells, in 96 well plates, were treated with indicated ligands for 20 minutes at room temperature in the presence of the phosphodiesterase inhibitor 3-isobutyl-1-methylxanthine (IBMX, Sigma I5879, 2 mM). The medium was then removed and cells were lysed in 50 mM HCl and transferred to −80C. Thawed lysates were diluted 1:5 with dH2O, and an 10 μl aliquot was assessed for cAMP content by radioimmunoassay using ^125I-cAMP analog as a tracer and unlabeled cAMP to generate a standard curve.

Row | SMILES | block of PTH-mediated decreased HDAC4/5 phosphorylation or SOST suppression (Ocy454 cells [1]; okadaic acid 300 nM plus PTH, FIGS. 13B and 13C) | Phospho-HDAC4 S246 levels (Ocy454 cells [2]) | dose of optimal efficacy at the level of gene expression (Ocy454 cells [3]; 4 hours) | RANKL expression (Ocy454 cells [3]) | SOST expression (Ocy454 cells [3]) | RANKL expression (Ocy454 cells [4]) | SOST expression (Ocy454 cells [4]) | dose of optimal efficacy at the level of HDAC4/5 dephosphorylation (Ocy454 cells [1]; 60 minutes, FIG. 5C) | HDAC4/5 phosphorylation (Ocy454 cells [1]; FIGS. 5B and 5C) | cAMP levels (Ocy454 cells [5])
1 | C=C1[C@@H](O)[C@@H]2O[C@]3(CC[C@H](/C=C/[C@@H](C)[C@@H]4CC(C)=C[C@@]5(O[C@H](C[C@@](C)(O)C(=O)O)CC[C@H]5O)O4)O3)CC[C@H]2O[C@@H]1[C@@H](O)C[C@H](C)[C@H]1O[C@@]2(CCCCO2)CC[C@H]1C [okadaic acid, reference compound] | did not block PTH-mediated decreased HDAC4/5 phosphorylation or SOST suppression |  |  |  |  |  |  |  |  | 
2 | COc1ccc(N2C(=O)N(c3c(C)cccc3C)Cc3cnc(Nc4ccc(N5CCN(C)CC5)c(OC)c4)nc32)c(OC)c1 [YKL-04-114] |  | showed the most clear results across multiple replicates | ~0.5 µM | RANKL up-regulation | rapid and potent SOST suppression | most active in these experiments at reducing SOST and increasing RANKL | most active in these experiments at reducing SOST | ~1 µM | rapid, dose-dependent decreases in HDAC4/5 phosphorylation | without increasing cAMP levels
